Assays:
human TTK = biological target: T1, human TTK (Homo sapiens, UniProt P33981); experiment: TTK inhibition assay (indirect ELISA); type: biochemical; conditions: read-out: TTK IC50 Range
T1 construct: amino terminal GST fusion of full length human TTK; purchased Invitrogen
T1 sequence (P33981 1-857): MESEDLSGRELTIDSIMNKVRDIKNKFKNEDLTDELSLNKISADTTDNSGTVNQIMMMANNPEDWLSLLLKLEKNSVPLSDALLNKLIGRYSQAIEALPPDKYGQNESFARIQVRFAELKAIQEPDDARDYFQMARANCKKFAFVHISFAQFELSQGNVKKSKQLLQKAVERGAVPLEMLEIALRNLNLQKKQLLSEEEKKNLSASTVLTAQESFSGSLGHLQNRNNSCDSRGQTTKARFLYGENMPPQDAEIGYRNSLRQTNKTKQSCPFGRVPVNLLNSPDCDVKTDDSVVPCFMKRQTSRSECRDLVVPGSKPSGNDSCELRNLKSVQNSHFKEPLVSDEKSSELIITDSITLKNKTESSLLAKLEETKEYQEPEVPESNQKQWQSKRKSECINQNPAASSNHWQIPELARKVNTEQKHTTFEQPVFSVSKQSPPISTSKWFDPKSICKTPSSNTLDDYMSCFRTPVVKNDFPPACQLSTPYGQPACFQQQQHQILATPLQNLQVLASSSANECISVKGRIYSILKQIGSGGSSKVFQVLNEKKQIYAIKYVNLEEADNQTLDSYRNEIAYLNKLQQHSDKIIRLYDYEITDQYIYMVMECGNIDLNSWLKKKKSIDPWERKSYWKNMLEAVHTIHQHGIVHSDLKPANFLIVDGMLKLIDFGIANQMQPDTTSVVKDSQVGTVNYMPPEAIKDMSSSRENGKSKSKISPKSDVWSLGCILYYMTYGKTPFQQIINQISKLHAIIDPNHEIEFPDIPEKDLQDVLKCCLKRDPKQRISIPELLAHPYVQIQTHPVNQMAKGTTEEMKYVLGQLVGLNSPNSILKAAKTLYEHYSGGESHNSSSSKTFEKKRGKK

[1] = system: colon cancer cells (HCT116); experiment: Cancer cell line growth inhibition (SRB assay); type: cell-based; conditions: Homo sapiens, HCT-116; read-out: Cancer Cell Line GI50 Range HCT116
Protocol: Breast cancer cells (MDA-MB-231), colon cancer cells (HCT116) and ovarian cancer cells (PA-1) were seeded (1000 to 4000 in 80 μl per well depending on the cell growth rate) into 96 well plates 24 hours before compound overlay. Compounds were prepared as 10 mM stock solutions in 100% DMSO which were diluted with DMEM (Dulbecco's Modified Eagle's Medium) cell growth Medium (Invitrogen, Burlington, ON, Canada) containing 10% FBS (Fetal Bovine Serum) to concentrations ranging from 50 nM to 250 μM. Aliquots (20 μl) from each concentration were overlaid to 80 μl of the pre-seeded cells in the 96 well plates to make final concentrations of 10 nM to 50 μM. The cells were cultured for 5 days before the Sulforhodamine B assay (SRB) was performed to determine the compound's cell growth inhibition activity.
Sulforhodamine B (purchased from Sigma, Oakville, ON, Canada) is a water-soluble dye that binds to the basic amino acids of the cellular proteins. Thus, colorimetric measurement of the bound dye provides an estimate of the total protein mass that is related to the cell number. the cells are fixed in situ by gently aspirating off the culture media and adding 50 μl ice cold 10% Trichloroacetic Acid (TCA) per well and incubate at 4° C. for 30-60 min. The plates are washed with H2O five times and allowed to air dry for 5 min. Addition of 50 μl 0.4% (w/v) SRB solution in 1% (v/v) acetic acid to each well and incubation for 30 min at RT completes the staining reaction. Following staining, plates are washed four times with 1% acetic acid to remove unbound dye and then allowed to air dry for 5 min. The stain is solubilized with 100 μl of 10 mM Tris pH 10.5 per well. Absorbance is read at 570 nm.
The percentage (%) of relative growth inhibition was calculated by comparing to DMSO treated only cells (100%). GI50's were determined for compounds with cytotoxic activity. The GI50 was calculated using GraphPad PRISM software (GraphPad Software, Inc., San Diego, Calif., USA).

Breast cancer cells = experiment: Cancer cell line growth inhibition (SRB assay); type: cell-based; conditions: Homo sapiens; MDA-MB-468; read-out: Cancer Cell Line GI50 Range MDA-MB-468
[2] = system: ovarian cancer cells (PA-1); experiment: Cancer cell line growth inhibition (SRB assay); type: cell-based; conditions: Homo sapiens, PA-1; read-out: Cancer Cell Line GI50 Range PA-1

O=C(NC(c1ccccc1)C1CCC1)c1ccc2[nH]nc(-c3ccc(O[C@H]4C[C@H]5CC[C@@H](C4)N5C4COC4)cc3)c2c1 (stereo partly drawn) [Example A345, N-(cyclobutyl(phenyl)methyl)-3-(4-(((1R,3R,5S)-8-(oxetan-3-yl)-8-azabicyclo[3.2.1]octan-3-yl)oxy)phenyl)-1H-indazole-5-carboxamide]
IC50 (human TTK): < 0.1 µM
GI50 [1]: 0.1 to 0.5 µM
GI50 (Breast cancer cells): 0.1 to 0.5 µM
GI50 [2]: 0.1 to 0.5 µM

O=CN1[C@@H]2CC[C@H]1C[C@@H](Oc1ccc(-c3n[nH]c4ccc(C(=O)NC(c5ccccc5)C5CCC5)cc34)cc1)C2 (stereo partly drawn) [Example A346, N-(cyclobutyl(phenyl)methyl)-3-(4-(((1R,3R,5S)-8-formyl-8-azabicyclo[3.2.1]octan-3-yl)oxy)phenyl)-1H-indazole-5-carboxamide]
IC50 (human TTK): < 0.1 µM
GI50 [1]: 0.1 to 0.5 µM
GI50 (Breast cancer cells): 0.1 to 0.5 µM
GI50 [2]: 0.1 to 0.5 µM

O=C(N[C@H](c1ccccn1)C1CCCC1)c1ccc2[nH]nc(-c3ccc(OC4CC5CCC(C4)N5C4COC4)cc3)c2c1 (stereo partly drawn) [Example A347, N-((S)-cyclopentyl(pyridin-2-yl)methyl)-3-(4-(((1R,3R,5S)-8-(oxetan-3-yl)-8-azabicyclo[3.2.1]octan-3-yl)oxy)phenyl)-1H-indazole-5-carboxamide]
IC50 (human TTK): < 0.1 µM
GI50 [1]: < 0.1 µM
GI50 (Breast cancer cells): 0.1 to 0.5 µM
GI50 [2]: 0.1 to 0.5 µM

O=CN1C2CCC1CC(Oc1ccc(-c3n[nH]c4ccc(C(=O)N[C@H](c5ccccn5)C5CCCC5)cc34)cc1)C2 (stereo partly drawn) [Example A348, N-((S)-cyclopentyl(pyridin-2-yl)methyl)-3-(4-(((1R,3R,5S)-8-formyl-8-azabicyclo[3.2.1]octan-3-yl)oxy)phenyl)-1H-indazole-5-carboxamide]
IC50 (human TTK): < 0.1 µM
GI50 [1]: < 0.1 µM
GI50 (Breast cancer cells): < 0.1 µM
GI50 [2]: < 0.1 µM

CC(C)[C@H](NC(=O)c1ccc2[nH]nc(-c3ccc(OC4CC5CCC(C4)N5C=O)nc3)c2c1)c1ccccc1Cl (stereo partly drawn) [Example A354, N-((S)-1-(2-chlorophenyl)-2-methylpropyl)-3-(6-(((1R,3R,5S)-8-formyl-8-azabicyclo[3.2.1]octan-3-yl)oxy)pyridin-3-yl)-1H-indazole-5-carboxamide]
IC50 (human TTK): < 0.1 µM
GI50 [1]: 0.1 to 0.5 µM
GI50 (Breast cancer cells): 0.1 to 0.5 µM
GI50 [2]: 0.1 to 0.5 µM

O=C(N[C@H](c1ccsc1)C1CC1)c1ccc2[nH]nc(-c3ccc(N4C5CCC4CC(O)C5)cc3)c2c1 (stereo partly drawn) [Example A365, N-((S)-cyclopropyl(thiophen-3-yl)methyl)-3-(4-((1R,3S,5S)-3-hydroxy-8-azabicyclo[3.2.1]octan-8-yl)phenyl)-1H-indazole-5-carboxamide]
IC50 (human TTK): < 0.1 µM
GI50 [1]: < 0.1 µM
GI50 (Breast cancer cells): < 0.1 µM
GI50 [2]: < 0.1 µM

CC(C)C[C@H](NC(=O)c1ccc2[nH]nc(-c3ccc(N4CCN(C5COC5)CC4)cc3)c2c1)c1ccccc1 [Example A371, (S)-N-(3-methyl-1-phenylbutyl)-3-(4-(4-(oxetan-3-yl)piperazin-1-yl)phenyl)-1H-indazole-5-carboxamide]
IC50 (human TTK): < 0.1 µM
GI50 [1]: < 0.1 µM
GI50 (Breast cancer cells): 0.1 to 0.5 µM
GI50 [2]: < 0.1 µM

O=C(NC(c1ccccc1)C1CC1)c1ccc2[nH]nc(-c3ccc(O[C@H]4C[C@H]5CC[C@@H](C4)N5)cc3)c2c1 (stereo partly drawn) [Example A375, 3-(4-((1R,3R,5S)-8-azabicyclo[3.2.1]octan-3-yloxy)phenyl)-N-(cyclopropyl(phenyl)methyl)-1H-indazole-5-carboxamide]
IC50 (human TTK): < 0.1 µM
GI50 [1]: < 0.1 µM
GI50 (Breast cancer cells): 0.1 to 0.5 µM
GI50 [2]: < 0.1 µM

CN1C2CCC1CC(Oc1ccc(-c3n[nH]c4ccc(C(=O)N[C@@H](c5ccccn5)C5CC5)cc34)cc1)C2 (stereo partly drawn) [Example A380, N-((R)-cyclopropyl(pyridin-2-yl)methyl)-3-(4-(((1R,3R,5S)-8-methyl-8-azabicyclo[3.2.1]octan-3-yl)oxy)phenyl)-1H-indazole-5-carboxamide]
IC50 (human TTK): < 0.1 µM
GI50 [1]: < 0.1 µM
GI50 (Breast cancer cells): 0.1 to 0.5 µM
GI50 [2]: < 0.1 µM

CN1CCC(Oc2ccc(-c3n[nH]c4ccc(C(=O)NC(c5ccccn5)C(C)(C)C)cc34)cc2)CC1 (stereo not shown) [Example A388]
IC50 (human TTK): < 0.1 µM
GI50 [1]: 0.1 to 0.5 µM
GI50 (Breast cancer cells): > 0.5 µM
GI50 [2]: 0.1 to 0.5 µM

CN1C2CCC1CC(Oc1ccc(-c3n[nH]c4ccc(C(=O)NC(c5ccccn5)C5CCCC5)cc34)cc1)C2 (stereo not shown) [Example A398, N-(cyclopentyl(pyridin-2-yl)methyl)-3-(4-((8-methyl-8-azabicyclo[3.2.1]octan-3-yl)oxy)phenyl)-1H-indazole-5-carboxamide]
IC50 (human TTK): < 0.1 µM
GI50 [1]: < 0.1 µM
GI50 (Breast cancer cells): < 0.1 µM
GI50 [2]: < 0.1 µM

CN1C2CCC1CC(Oc1ccc(-c3n[nH]c4ccc(C(=O)NC(c5ccccc5)C(F)(F)F)cc34)cc1)C2 (stereo not shown) [Example A400]
IC50 (human TTK): < 0.1 µM
GI50 [1]: 0.1 to 0.5 µM
GI50 (Breast cancer cells): > 0.5 µM
GI50 [2]: 0.1 to 0.5 µM

CC(C)[C@H](NC(=O)c1ccc2[nH]nc(-c3ccc(C4CCN(C5COC5)CC4)cc3)c2c1)c1ccccc1Cl [Example A406, (S)-N-(1-(2-chlorophenyl)-2-methylpropyl)-3-(4-(4-(oxelan-3-yl)piperidin-1-yl)phenyl)-1H-indazole-5-carboxamide]
IC50 (human TTK): < 0.1 µM
GI50 [1]: > 0.5 µM
GI50 (Breast cancer cells): > 0.5 µM
GI50 [2]: > 0.5 µM

CN1CCC(Oc2ccc(-c3n[nH]c4ccc(C(=O)NC(c5ccccn5)C5CCCCC5)cc34)cc2)CC1 (stereo not shown) [Example A409, N-(cyclohexyl(pyridin-2-yl)methyl)-3-(4-((1-methylpiperidin-4-yl)oxy)phenyl)-1H-indazole-5-carboxamide]
IC50 (human TTK): < 0.1 µM
GI50 [1]: 0.1 to 0.5 µM
GI50 (Breast cancer cells): 0.1 to 0.5 µM
GI50 [2]: 0.1 to 0.5 µM

CC(C)[C@@H](NC(=O)c1ccc2[nH]nc(-c3ccc(N4CCN(C5COC5)CC4)cc3)c2c1)c1ccccc1Cl [Example A412, (R)-N-(1-(2-chlorophenyl)-2-methylpropyl)-3-(4-(4-(oxetan-3-yl)piperazin-1-yl)phenyl)-1H-indazole-5-carboxamide]
IC50 (human TTK): < 0.1 µM
GI50 [1]: < 0.1 µM
GI50 (Breast cancer cells): 0.1 to 0.5 µM
GI50 [2]: < 0.1 µM

CC(C)C[C@H](NC(=O)c1ccc2[nH]nc(-c3ccc(N4C5CCC4COC5)cc3)c2c1)c1ccccc1Cl [Example A413, 3-(4-((1R,5S)-3-oxa-8-azabicyclo[3.2.1]octan-8-yl)phenyl)-N-((S)-(2-chlorophenyl)-3-methylbulyl)-1H-indazole-5-carboxamide]
IC50 (human TTK): < 0.1 µM
GI50 [1]: < 0.1 µM
GI50 (Breast cancer cells): 0.1 to 0.5 µM
GI50 [2]: < 0.1 µM

CC(C)C[C@H](NC(=O)c1ccc2[nH]nc(-c3ccc(N4[C@@H]5CCC[C@H]4COC5)cc3)c2c1)c1ccccc1Cl [Example A417, 3-(4-((1R,5S)-3-oxa-9-azabicyclo[3.3.1]nonan-9-yl)phenyl)-N-((S)-(2-chlorophenyl)-3-methylbutyl)-1 H-indazole-5-carboxamide]
IC50 (human TTK): < 0.1 µM
GI50 [1]: 0.1 to 0.5 µM
GI50 (Breast cancer cells): 0.1 to 0.5 µM
GI50 [2]: 0.1 to 0.5 µM

O=C(N[C@@H](c1ccccn1)C1CCCC1)c1ccc2[nH]nc(-c3ccc(N4C5COCC4CC(O)C5)cc3)c2c1 (stereo partly drawn) [Example A425, N-((R)-cyclopentyl(pyridin-2-yl)methyl)-3-(4-((1R,5S,7R)-7-hydroxy-3-oxa-9-azabicyclo[3.3.1]nonan-9-yl)phenyl)-1H-indazole-5-carboxamide]
IC50 (human TTK): < 0.1 µM
GI50 [1]: < 0.1 µM
GI50 (Breast cancer cells): < 0.1 µM
GI50 [2]: < 0.1 µM

O=C(NCC1(OC2CCCC2)CCCCC1)c1ccc2[nH]nc(-c3ccc(OC4CCN(C5COC5)CC4)cc3)c2c1 [Example A434, N-((1-(cyclopentyloxy)cyclohexyl)methyl)-3-(4-((1-(oxetan-3-yl)piperidin-4-yl)oxy)phenyl)-1H-indazole-5-carboxamide]
IC50 (human TTK): < 0.1 µM
GI50 [1]: > 0.5 µM
GI50 (Breast cancer cells): > 0.5 µM
GI50 [2]: > 0.5 µM

CN1[C@@H]2CC[C@H]1C[C@@H](Oc1ccc(-c3n[nH]c4ccc(C(=O)NCC5(OC6CCCC6)CCCCC5)cc34)cc1)C2 [Example A438]
IC50 (human TTK): < 0.1 µM
GI50 [1]: 0.1 to 0.5 µM
GI50 (Breast cancer cells): > 0.5 µM
GI50 [2]: 0.1 to 0.5 µM

CCC(CC)(CNC(=O)c1ccc2[nH]nc(-c3ccc(OC4CCN(C5COC5)CC4)cc3)c2c1)c1ccccc1 [Example A439, N-(2-ethyl-2-phenylbutyl)-3-(4-((1-(oxetan-3-yl)piperidin-4-yl)oxy)phenyl)-1H-indazole-5-carboxamide]
IC50 (human TTK): < 0.1 µM
GI50 [1]: 0.1 to 0.5 µM
GI50 (Breast cancer cells): 0.1 to 0.5 µM
GI50 [2]: 0.1 to 0.5 µM

CCC(CC)(CNC(=O)c1ccc2[nH]nc(-c3ccc(OC4CCN(C)CC4)cc3)c2c1)c1ccccc1 [Example A440, N-(2-ethyl-2-phenylbutyl)-3-(4-((1-methylpiperidin-4-yl)oxy)phenyl)-1H-indazole-5-carboxamide]
IC50 (human TTK): < 0.1 µM
GI50 [1]: 0.1 to 0.5 µM
GI50 (Breast cancer cells): 0.1 to 0.5 µM
GI50 [2]: 0.1 to 0.5 µM
